In patent publication US11292821B2, “Peptides and combination of peptides for use in immunotherapy against lung cancer, including NSCLC, SCLC and other cancers” (Immatics Biotechnologies GmbH, priority 2017, dated 2022):

Tested on: HLA-A*01
Assay: MHC binding assay (UV-ligand exchange, β2m ELISA)
Set-up: species or system human
Source text: Candidate peptides for T cell based therapies according to the present invention were further tested for their MHC binding capacity (affinity). The individual peptide-MHC complexes were produced by UV-ligand exchange, where a UV-sensitive peptide is cleaved upon UV-irradiation, and exchanged with the peptide of interest as analyzed. Only peptide candidates that can effectively bind and stabilize the peptide-receptive MHC molecules prevent dissociation of the MHC complexes. To determine the yield of the exchange reaction, an ELISA was performed based on the detection of the light chain (β2m) of stabilized MHC complexes. The assay was performed as generally described in Rodenko et al. (Rodenko et al., 2006).
96 well MAXISorp plates (NUNC) were coated over night with 2 ug/ml streptavidin in PBS at room temperature, washed 4× and blocked for 1 h at 37° C. in 2% BSA containing blocking buffer. […] Peptide-MHC monomers of the UV-exchange reaction were diluted 100-fold in blocking buffer. Samples were incubated for 1 h at 37° C., washed four times, incubated with 2 ug/ml HRP conjugated anti-β2m for 1h at 37° C., washed again and detected with TMB solution that is stopped with […]. Absorption was measured at 450 nm. Candidate peptides that show a high exchange yield (preferably higher than 50%, most preferred higher than 75%) are generally preferred for a generation and production of antibodies or fragments thereof, and/or T cell receptors or fragments thereof, as they show sufficient avidity to the MHC molecules and prevent dissociation of the MHC complexes.

| Substance | Peptide exchange (peptide exchange yield, MHC class I binding score) |
| --- | --- |
| 423 (NLDAVHDITVAY; listed as Homo sapiens) [compound 423] | “++++” (>75% = ++++) |
| 172 (RTDSCSSAQAQY; listed as Homo sapiens) [compound 172] | “+++” (>50 = +++) |
| 197 (YADTVRPEFY; listed as Homo sapiens) [compound 197] | “+++” (>50 = +++) |
| 149 (GTEFTTVLY; listed as Homo sapiens) [compound 149] | “++++” (>75% = ++++) |
| 179 (STAKSATWTY; listed as Homo sapiens) [compound 179] | “++++” (>75% = ++++) |
| 417 (LLEDKHFQSY; listed as Homo sapiens) [compound 417] | “++++” (>75% = ++++) |
| 450 (YSDDGQKWTVY; listed as Homo sapiens) [compound 450] | “++++” (>75% = ++++) |
| 434 (QTDCAPNNGY; listed as Homo sapiens) [compound 434] | “++++” (>75% = ++++) |
| 432 (NVDPVQHTY; listed as Homo sapiens) [compound 432] | “+++” (>50 = +++) |
| 167 (QSDPGTSVLGY; listed as Homo sapiens) [compound 167] | “+++” (>50 = +++) |
| 413 (ISDRYYTALY; listed as Homo sapiens) [compound 413] | “++++” (>75% = ++++) |
| 415 (LLDPRSYHTY; listed as Homo sapiens) [compound 415] | “+++” (>50 = +++) |
| 151 (HSDLKVGEY; listed as Homo sapiens) [compound 151] | “+++” (>50 = +++) |
| 152 (HTDSLHLLI; listed as Homo sapiens) [compound 152] | “+++” (>50 = +++) |
| 147 (GSSDSSTLPKL; listed as Homo sapiens) [compound 147] | “++” (>20% = ++) |
| 196 (WMFFVINY; listed as Homo sapiens) [compound 196] | “+” (>10% = +) |
| 407 (FSDNDKLYLY; listed as Homo sapiens) [compound 407] | “++++” (>75% = ++++) |
| 406 (ETEQTKFWDY; listed as Homo sapiens) [compound 406] | “++++” (>75% = ++++) |
| 447 (VVDEDHELIY; listed as Homo sapiens) [compound 447] | “+++” (>50 = +++) |
| 427 (NSDEQKITEMVY; listed as Homo sapiens) [compound 427] | “++++” (>75% = ++++) |
| 155 (LLDPNPHMY; listed as Homo sapiens) [compound 155] | “++++” (>75% = ++++) |

| Substance | Peptide exchange (peptide exchange yield, MHC class I binding score) |
| --- | --- |
| 399 (ATDIPCLLY; listed as Homo sapiens) [compound 399] | “++++” (>75% = ++++) |
| 428 (NSELSCQLY; listed as Homo sapiens) [compound 428] | “++++” (>75% = ++++) |
| 182 (TDYHVRVY; listed as Homo sapiens) [compound 182] | “+++” (>50 = +++) |
| 144 (FLDSQNLSAY; listed as Homo sapiens) [compound 144] | “+++” (>50 = +++) |
| 142 (EVAEPSVLFDLY; listed as Homo sapiens) [compound 142] | “+++” (>50 = +++) |
| 429 (NTEDSSMSGYLY; listed as Homo sapiens) [compound 429] | “++++” (>75% = ++++) |
| 148 (GTEFTTILY; listed as Homo sapiens) [compound 148] | “++++” (>75% = ++++) |
| 444 (TTDTVIRSY; listed as Homo sapiens) [compound 444] | “+++” (>50 = +++) |
| 400 (ATDISRQNEY; listed as Homo sapiens) [compound 400] | “+++” (>50 = +++) |
| 410 (GSDHQSPSSSSY; listed as Homo sapiens) [compound 410] | “++++” (>75% = ++++) |
| 420 (LTEDKETLQY; listed as Homo sapiens) [compound 420] | “++++” (>75% = ++++) |
| 183 (TLEDIATSHLY; listed as Homo sapiens) [compound 183] | “++++” (>75% = ++++) |
| 176 (SRTINVSNLY; listed as Homo sapiens) [compound 176] | “+++” (>50 = +++) |
| 409 (FVDPLVTNY; listed as Homo sapiens) [compound 409] | “++++” (>75% = ++++) |
| 424 (NLDEEKQLLY; listed as Homo sapiens) [compound 424] | “+++” (>50 = +++) |
| 186 (TTDIIEKY; listed as Homo sapiens) [compound 186] | “+++” (>50 = +++) |
| 146 (GLNTGSALSY; listed as Homo sapiens) [compound 146] | “++” (>20% = ++) |
| 166 (NTQITDIGRY; listed as Homo sapiens) [compound 166] | “+++” (>50 = +++) |
| 418 (LSDPSGPKSY; listed as Homo sapiens) [compound 418] | “+++” (>50 = +++) |
| 162 (LVDNSIRELQY; listed as Homo sapiens) [compound 162] | “+++” (>50 = +++) |
| 180 (STDPWIQMAY; listed as Homo sapiens) [compound 180] | “++++” (>75% = ++++) |

| Substance | Peptide exchange (peptide exchange yield, MHC class I binding score) |
| --- | --- |
| 169 (RLDTPLYFSY; listed as Homo sapiens) [compound 169] | “++++” (>75% = ++++) |
| 411 (GTVYEDLRY; listed as Homo sapiens) [compound 411] | “++++” (>75% = ++++) |
| 443 (TTDFPSESSFEY; listed as Homo sapiens) [compound 443] | “++++” (>75% = ++++) |
| 449 (YLDRGTGNVSFY; listed as Homo sapiens) [compound 449] | “++++” (>75% = ++++) |
| 156 (LLDSLREQY; listed as Homo sapiens) [compound 156] | “+++” (>50 = +++) |
| 438 (STDNFNCKY; listed as Homo sapiens) [compound 438] | “+++” (>50 = +++) |
| 170 (RSDDTAVYY; listed as Homo sapiens) [compound 170] | “++++” (>75% = ++++) |
| 161 (LVDDGTHGQY; listed as Homo sapiens) [compound 161] | “+++” (>50 = +++) |
| 408 (FTEQWTDGY; listed as Homo sapiens) [compound 408] | “+++” (>50 = +++) |
| 184 (TSAHPEDSSFY; listed as Homo sapiens) [compound 184] | “+++” (>50 = +++) |
| 414 (KTDESLTKY; listed as Homo sapiens) [compound 414] | “+++” (>50 = +++) |
| 412 (ILDEVIMGY; listed as Homo sapiens) [compound 412] | “++++” (>75% = ++++) |
| 134 (AAEIGDKSWLY; listed as Homo sapiens) [compound 134] | “++++” (>75% = ++++) |
| 397 (ASEITSKGASLY; listed as Homo sapiens) [compound 397] | “++++” (>75% = ++++) |
| 192 (VTEESFDSKFY; listed as Homo sapiens) [compound 192] | “++++” (>75% = ++++) |
| 441 (TLDSALNAASYY; listed as Homo sapiens) [compound 441] | “++++” (>75% = ++++) |
| 171 (RSDPVTLNVLY; listed as Homo sapiens) [compound 171] | “++++” (>75% = ++++) |
| 165 (NTDPTAPPY; listed as Homo sapiens) [compound 165] | “+++” (>50 = +++) |
| 188 (VSDAKLDKY; listed as Homo sapiens) [compound 188] | “+++” (>50 = +++) |
| 135 (ASEDSVLLY; listed as Homo sapiens) [compound 135] | “++++” (>75% = ++++) |
